Results taken from US20240208959A1, “THIAZOLE/ISOTHIAZOLE HSD17B13 INHIBITORS AND USES THEREOF” (INIPHARM, INC., priority 2021, published 2024).

These molecules were tested against T1, HSD17B13 enzyme (Homo sapiens, UniProt Q7Z5P4) (assay: LC/MS estrone detection assay: conversion of estradiol to estrone by HSD17B13). Conditions: 4 μM Estradiol, 6mM NAD, 30 nM HSD17B13 enzyme (E. coli expressed His-tagged), 2 hours at 26.5° C.
T1 construct: His; made in house; host or cells: E. coli
T1 sequence (Q7Z5P4 20-300): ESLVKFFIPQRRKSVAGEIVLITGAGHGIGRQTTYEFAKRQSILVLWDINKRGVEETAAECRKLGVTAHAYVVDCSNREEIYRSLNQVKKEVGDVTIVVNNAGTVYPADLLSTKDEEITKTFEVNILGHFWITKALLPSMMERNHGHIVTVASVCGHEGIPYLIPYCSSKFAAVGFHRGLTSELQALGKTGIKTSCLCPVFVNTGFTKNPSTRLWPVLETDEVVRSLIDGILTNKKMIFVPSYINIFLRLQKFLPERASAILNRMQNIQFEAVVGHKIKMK
Format: biochemical
Procedure: Example A: Estrone Detection Assay for Evaluation of HSD17β13 Activity and Identification of Inhibitors
The liquid chromatography/mass spectrometry (LC/MS) estrone detection assay monitors the conversion of estradiol to estrone by HSD17B13. This assay was undertaken in a 96wp format (Eppendorf deep well Plate 96/500) in an 80 μl reaction volume containing: 4 μM of Estradiol (E2: Cayman: #10006315), 6mM NAD (Sigma: #N0623) and 30 nM HSD17B13 enzyme (in-house: E. coli expressed His-tagged, purified, soluble protein) in a reaction containing […] potassium phosphate buffer pH 7.4, with 0.5% vehicle (DMSO). Reactions were incubated for 2 hours at 26.5° C., and estradiol (E2) conversion to estrone (E1) was quantitated by LC-MS/MS based analyte detection for both E2 and E1 using LCMS grade reagents.
Reactions were terminated by the addition of two volumes of acetonitrile (MeCN: LCMS grade: CAS #75/05/8) containing deuterated (D4)-E1 used as internal standard (Clear Synth: #CS-T-54273: 500 ng/mL final concentration). Samples were applied to pre-prepared Bond Elut-C18 extraction cartridges (3 mL: Agilent: #12102028), washed and eluted in MeCN. Eluates were dried under nitrogen and re-suspended in 60% methanol (LCMS grade methanol: CAS #67/56/1) before submission for analysis. Aqueous linearity for E2 and E1 were included for quantification.
Analysis of samples was undertaken on a XBridge BEH C18 column (Waters: #186003033) using 0.1% Diethyl Amine in MeCN (mobile phase A: DEA CAS #109-89-7) and 0.1% Diethyl Amine in milli-Q water (mobile phase B) in a 3 min gradient allowing 25% B. Analytes were detected in negative mode using MRM analysis, with E2 having a RT of 1.85 min and E1 having a RT of 2 min Activity of the enzyme, in the absence of NAD′, was used to evaluate specificity of conversion. Enzyme activity in the presence of test samples was expressed as a percentage of the uninhibited enzyme activity, and plotted versus inhibitor concentration. Non-linear regression was performed using a four-parameter logistic model and GraphPad Prism software (GraphPad Software, La Jolla, CA). All assessments were undertaken in duplicate evaluations and pooled during extraction process and subsequently injected as duplicates for LC-MS/MS analysis.

| Compound | IC50 [nM] |
| --- | --- |
| O=C(Nc1scnc1C(=O)NC(CO)c1ccccc1)c1ccc(O)c(Cl)c1 (stereo in doubt) [Example 6, (R)-5-(3-chloro-4-hydroxybenzamido)-N-(2-hydroxy-1-phenylethyl)thiazole-4-carboxamide] | ≤ 100 |
| COC(=O)C(NC(=O)c1scnc1NC(=O)c1ccc(O)c(Cl)c1)c1ccccc1 (stereo in doubt) [Example 7, methyl (R)-2-(4-(3-chloro-4-hydroxybenzamido)thiazole-5-carboxamido)-2-phenylacetate] | 100 to 500 |
| O=C(Nc1ncsc1C(=O)NC(C(=O)O)c1ccccc1)c1ccc(O)c(Cl)c1 (stereo in doubt) [Example 8, (R)-2-(4-(3-chloro-4-hydroxybenzamido)thiazole-5-carboxamido)-2-phenylacetic Acid] | 1000 to 10000 |
| O=C(Nc1ncsc1C(=O)NCCc1ccccc1C(F)(F)F)c1ccc(O)c(C(F)(F)F)n1 [Example 1, 4-(5-hydroxy-6-(trifluoromethyl)picolinamido)-N-(2-(trifluoromethyl)phenethyl)thiazole-5-carboxamide] | 100 to 500 |
| O=C(Nc1ncsc1C(=O)NCCc1ccccc1F)c1ccc(O)c(C(F)(F)F)n1 [Example 2, N-(2-fluorophenethyl)-4-(5-hydroxy-6-(trifluoromethyl)picolinamido)thiazole-5-carboxamide] | 100 to 500 |
| CC(C)(C)CCNC(=O)c1scnc1NC(=O)c1ccc(O)c(C(F)(F)F)n1 [Example 3, N-(3,3-dimethylbutyl)-4-(5-hydroxy-6-(trifluoromethyl)picolinamido)thiazole-5-carboxamide] | 500 to 1000 |
| Cc1nsc(NC(=O)c2ccc(O)c(Cl)c2)c1C(=O)NCCC(C)(C)C [Example 5, 5-(3-chloro-4-hydroxybenzamido)-N-(3,3-dimethylbutyl)-3-methylisothiazole-4-carboxamide] | ≤ 100 |
| O=C(Nc1ncsc1C(=O)NCc1ccccc1F)c1cc(F)c(O)c(Cl)c1 [Example 10, 4-(3-chloro-5-fluoro-4-hydroxybenzamido)-N-(2-fluorobenzyl)thiazole-5-carboxamide] | 100 to 500 |
| COc1ccccc1CCNC(=O)c1nc(C)sc1NC(=O)c1ccc(O)c(Cl)c1 [Example 12, 5-(3-chloro-4-hydroxybenzamido)-N-(2-methoxyphenethyl)-2-methylthiazole-4-carboxamide] | ≤ 100 |

The remaining lines, values ahead:

| IC50 [nM] | Compound |
| --- | --- |
| ≤ 100 | O=C(Nc1ncsc1C(=O)NCc1ccccc1C(F)(F)F)c1cc(F)c(O)c(F)c1 [Example 4, 4-(3,5-difluoro-4-hydroxybenzamido)-N-(2-(trifluoromethyl)benzyl)thiazole-5-carboxamide] |
| ≤ 100 | O=C(Nc1ncsc1C(=O)NCc1ccccc1C(F)(F)F)c1cc(F)c(O)c(Cl)c1 [Example 9, 4-(3-chloro-5-fluoro-4-hydroxybenzamido)-N-{[2-(trifluoromethyl)phenyl]methyl}-1,3-thiazole-5-carboxamide] |
| 100 to 500 | O=C(Nc1ncsc1C(=O)NCc1ccccc1OC(F)(F)F)c1cc(F)c(O)c(Cl)c1 [Example 11, 4-(3-chloro-5-fluoro-4-hydroxybenzamido)-N-(2-(trifluoromethoxy)benzyl)thiazole-5-carboxamide] |
| 500 to 1000 | O=C(Nc1scnc1C(=O)NCc1ccccc1OC(F)(F)F)c1cc(Cl)c(=O)[nH]n1 [Example 13, 5-(5-chloro-6-oxo-1,6-dihydropyridazine-3-carboxamido)-N-(2-(trifluoromethoxy)benzyl)thiazole-4-carboxamide] |
| > 10000 | CC(C)c1cc(C(=O)Nc2scnc2C(=O)NCc2ccccc2OC(F)(F)F)n[nH]c1=O [Example 14, 5-(5-isopropyl-6-oxo-1,6-dihydropyridazine-3-carboxamido)-N-(2-(trifluoromethoxy)benzyl)thiazole-4-carboxamide] |
| > 10000 | O=C(Nc1scnc1C(=O)NCc1ccccc1OC(F)(F)F)c1ccc(=O)[nH]n1 [Example 15, 5-(6-oxo-1,6-dihydropyridazine-3-carboxamido)-N-(2-(trifluoromethoxy)benzyl)thiazole-4-carboxamide] |
| > 10000 | O=C(Nc1scnc1C(=O)NCc1ccccc1OC(F)(F)F)c1c[nH]c(=O)cn1 [Example 16, 5-(5-oxo-4,5-dihydropyrazine-2-carboxamido)-N-(2-(trifluoromethoxy)benzyl)thiazole-4-carboxamide] |
